# Source: PMC7979765, “trans-Translation inhibitors bind to a novel site on the ribosome and clear Neisseria gonorrhoeae in vivo” (Nature Communications, 2021)
# “And” between values parts separate entries of the source, which are not always exact repeats. Equal entries are not always repeated.
# Experiments:
# [1] = Aqueous solubility (nephelometric); type: physicochemical; conditions: for Solubility: single replicates
# [2] = tested on: Escherichia coli; assay: microbe, parasite or virus in culture; type: cell-based; conditions: E. coli KLE701 (ΔtolC::tet); source data, individual replicates
# [3] = tested on: HeLa cells; assay: Mammalian cell cytotoxicity (CC50); type: cell-based, human; conditions: one value per replicate
# [4] = tested on: Neisseria gonorrhoeae; assay: MIC, microbroth dilution, G77L medium; type: cell-based; conditions: Neisseria gonorrhoeae ATCC 49226; source data, individual replicates
# [5] = tested on: HeLa cells; assay: Mammalian cell cytotoxicity (CC50); type: cell-based, human; conditions: HeLa, replicates
# Experimental: The half maximal cytotoxic concentration (CC50) of each compound against HeLa cells (ATCC CCL-2) was measured as previously described. […] The mean values for each biological replicate were averaged, and the CC50 was determined using a 4-parameter nonlinear curve fitting algorithm (GraphPad Prism). The average of the CC50s from two biological replicates was calculated and reported.
# [6] = tested on: trans-translation; assay: microbe, parasite or virus in culture; type: cell-based, Escherichia coli; conditions: Eco Luc reporter, one value per replicate; read-out: IC50
# Experimental: To verify that MBX-4132 retains activity as an inhibitor of trans-translation, we measured its dose-dependent activity against the non-stop luciferase reporter assay strain E. coli SB75 ΔtolC::kan (pluc-trpAt) essentially as described, with modifications. Briefly, serial 1.5-fold dilutions of MBX-4132 in DMSO were transferred to 96-well assay plates (Costar 3195), followed by the addition of 50 µl of an overnight culture of SB75 ΔtolC::kan (pluc-trpAt) that had been diluted to a final OD600 of 0.4 with LB media supplemented with 100 µg ampicillin/ml and 1 mM IPTG. […] The assay plates were incubated at room temperature for 2 h, and 50 µl of BrightGlo (Promega) bioluminescence reagent was added to each well. After 10 min incubation, bioluminescence intensity was measured using an Envision multi-label plate reader (Perkin Elmer). Each assay comprised three technical replicates, and the experiment was repeated three times. The fold induction for each MBX-4132 treated sample as compared to the DMSO-only sample was calculated for each technical replicate, and the average and standard deviation of the three technical was calculated. The IC50 was determined using a 4-parameter nonlinear curve fitting algorithm (GraphPad Prism).
# [7] = Liver microsome stability, murine; type: in vitro ADME, mouse; conditions: for Average MLMS t½ / MLMS t½: murine liver microsomes; for Average MLMS t½: average of replicates; for MLMS t½: individual replicates
# Experimental: To examine potential for first-pass metabolism of analogs in the liver, the stability of analogs in the presence of liver microsome preparations (Eurofins Discovery for human, dog and rat; Xenotech for mouse) was measured using the method of Kuhnz, et al.[50]. for murine studies and Oback for the dog, human and rat studies. The amount of parent compound remaining after incubation with microsomes in the presence of NADPH over a 30 min time range was measured using a reverse-phase liquid chromatography/mass spectroscopy method that was customized for each compound. Half-lives were calculated using linear regression analysis of several time points.
Compound,Average solubility [1] [µM],Solubility [1] [µM],MIC [2],CC50 [3] [µM],MIC [4],NORMALIZED DATA (Fraction DMSO Control) ([5]; [CMPD] 0.78125 µM),NORMALIZED DATA (Fraction DMSO Control) ([5]; [CMPD] 1.5625 µM),NORMALIZED DATA (Fraction DMSO Control) ([5]; [CMPD] 3.125 µM),NORMALIZED DATA (Fraction DMSO Control) ([5]; [CMPD] 6.25 µM),NORMALIZED DATA (Fraction DMSO Control) ([5]; [CMPD] 12.5 µM),NORMALIZED DATA (Fraction DMSO Control) ([5]; [CMPD] 25 µM),NORMALIZED DATA (Fraction DMSO Control) ([5]; [CMPD] 50 µM),NORMALIZED DATA (Fraction DMSO Control) ([5]; [CMPD] 100 µM),IC50 [6] [µM],Average MLMS t½ [7] [min],MLMS t½ [7],liver microsome stability (in words) [7]
Fc1ccc(-c2nnc(NCc3ccc(Cl)cc3)o2)cc1 [MBX-3776],25,25,>=30.372 µg/ml,≥ 100,>=30.372 µg/ml,0.9425 Fraction DMSO Control and 0.9291 Fraction DMSO Control and 1.002 Fraction DMSO Control and 0.9674 Fraction DMSO Control and 0.9349 Fraction DMSO Control and 0.9583 Fraction DMSO Control,0.9887 Fraction DMSO Control and 1.033 Fraction DMSO Control and 1.0461 Fraction DMSO Control and 0.981 Fraction DMSO Control and 0.9949 Fraction DMSO Control and 1.019 Fraction DMSO Control,0.9887 Fraction DMSO Control and 0.9933 Fraction DMSO Control and 1.016 Fraction DMSO Control and 0.9805 Fraction DMSO Control and 0.9905 Fraction DMSO Control and 1.024 Fraction DMSO Control,0.964 Fraction DMSO Control and 0.9895 Fraction DMSO Control and 1.009 Fraction DMSO Control and 1.011 Fraction DMSO Control and 0.9848 Fraction DMSO Control and 0.9995 Fraction DMSO Control,0.9916 Fraction DMSO Control and 1.003 Fraction DMSO Control and 0.985 Fraction DMSO Control and 0.9785 Fraction DMSO Control and 0.9711 Fraction DMSO Control and 0.9946 Fraction DMSO Control,0.8342 Fraction DMSO Control and 0.8793 Fraction DMSO Control and 0.8796 Fraction DMSO Control and 0.8381 Fraction DMSO Control and 0.8221 Fraction DMSO Control and 0.8915 Fraction DMSO Control,0.8682 Fraction DMSO Control and 0.9316 Fraction DMSO Control and 0.8851 Fraction DMSO Control and 0.8718 Fraction DMSO Control and 0.8862 Fraction DMSO Control and 0.9022 Fraction DMSO Control,0.8662 Fraction DMSO Control and 0.9027 Fraction DMSO Control and 0.8885 Fraction DMSO Control and 0.8759 Fraction DMSO Control and 0.8519 Fraction DMSO Control and 0.9047 Fraction DMSO Control,≥ 25,5.3,4.3 min and 6.3 min,–
Cc1ccc(S(=O)(=O)Nc2nnc(-c3ccc(F)cc3)o2)cc1 [MBX-4063],100,100,>=33.334 µg/ml,≥ 100,>=33.3 µg/ml,1.183 Fraction DMSO Control and 0.9487 Fraction DMSO Control and 1.005 Fraction DMSO Control,1.094 Fraction DMSO Control and 0.958 Fraction DMSO Control and 0.97 Fraction DMSO Control,1.091 Fraction DMSO Control and 0.9572 Fraction DMSO Control and 1.016 Fraction DMSO Control,1.076 Fraction DMSO Control and 0.9091 Fraction DMSO Control and 0.9832 Fraction DMSO Control,1.0577 Fraction DMSO Control and 0.9473 Fraction DMSO Control and 0.9636 Fraction DMSO Control,1.026 Fraction DMSO Control and 0.9338 Fraction DMSO Control and 0.9374 Fraction DMSO Control,1.123 Fraction DMSO Control and 0.9526 Fraction DMSO Control and 0.9567 Fraction DMSO Control,1.06 Fraction DMSO Control and 0.9108 Fraction DMSO Control and 0.964 Fraction DMSO Control,≥ 25,<5,<5 min,–
O=C(Nc1nnc(-c2ccc(F)cc2)o1)N1CCCC1 [MBX-4346],>200,>200,27.6271 µg/mL,≥ 100,3.453 µg/mL,1.217 Fraction DMSO Control and 0.9631 Fraction DMSO Control and 1.029 Fraction DMSO Control,1.148 Fraction DMSO Control and 0.9904 Fraction DMSO Control and 1.014 Fraction DMSO Control,1.14 Fraction DMSO Control and 1.021 Fraction DMSO Control and 1.0883 Fraction DMSO Control,1.122 Fraction DMSO Control and 0.9837 Fraction DMSO Control and 1.041 Fraction DMSO Control,1.103 Fraction DMSO Control and 1.043 Fraction DMSO Control and 1.0247 Fraction DMSO Control,1.033 Fraction DMSO Control and 0.9838 Fraction DMSO Control and 0.9917 Fraction DMSO Control,0.972 Fraction DMSO Control and 0.8011 Fraction DMSO Control and 0.809 Fraction DMSO Control,0.8767 Fraction DMSO Control and 0.7312 Fraction DMSO Control and 0.7411 Fraction DMSO Control,–,25,30.1 min and 20.5 min,limited
O=C(Nc1nnc(-c2ccc(F)cc2)o1)N1CCCCC1 [MBX-4699],50,50,7.257 µg/mL,≥ 100,0.9072 µg/mL,1.206 Fraction DMSO Control and 0.9471 Fraction DMSO Control and 1 Fraction DMSO Control,1.141 Fraction DMSO Control and 0.9447 Fraction DMSO Control and 0.9657 Fraction DMSO Control,1.163 Fraction DMSO Control and 1.061 Fraction DMSO Control and 1.0891 Fraction DMSO Control,1.089 Fraction DMSO Control and 1.109 Fraction DMSO Control and 1.081 Fraction DMSO Control,0.7963 Fraction DMSO Control and 0.7071 Fraction DMSO Control and 0.8639 Fraction DMSO Control,0.8798 Fraction DMSO Control and 0.8258 Fraction DMSO Control and 0.8774 Fraction DMSO Control,0.9431 Fraction DMSO Control and 0.7958 Fraction DMSO Control and 0.7843 Fraction DMSO Control,0.7918 Fraction DMSO Control and 0.6844 Fraction DMSO Control and 0.6971 Fraction DMSO Control,–,12,10.1 min and 13.2 min,–
O=C(Nc1nnc(-c2ccc(F)cc2)o1)N1CCCCCC1 [MBX-4700],25,25,3.804 µg/mL and 7.608 µg/mL,≥ 100,0.951 µg/mL and 0.4755 µg/mL,1.19 Fraction DMSO Control and 0.9349 Fraction DMSO Control and 0.9879 Fraction DMSO Control,1.113 Fraction DMSO Control and 0.9447 Fraction DMSO Control and 0.9899 Fraction DMSO Control,1.151 Fraction DMSO Control and 1.008 Fraction DMSO Control and 1.078 Fraction DMSO Control,0.9458 Fraction DMSO Control and 0.9081 Fraction DMSO Control and 0.9843 Fraction DMSO Control,0.7537 Fraction DMSO Control and 0.7467 Fraction DMSO Control and 0.8509 Fraction DMSO Control,0.8669 Fraction DMSO Control and 0.6852 Fraction DMSO Control and 0.8634 Fraction DMSO Control,0.8891 Fraction DMSO Control and 0.7812 Fraction DMSO Control and 0.7745 Fraction DMSO Control,0.8207 Fraction DMSO Control and 0.7165 Fraction DMSO Control and 0.6953 Fraction DMSO Control,–,19,16.8 min and 21.8 min,–
